ChEMBL document CHEMBL3132776, “Synthesis of amphiphilic, chalcogen-based redox modulators with in vitro cytotoxic activity against cancer cells, macrophages and microbes” (Medchemcomm, 2014)
Active and inactive are the calls of the source. No cut-off for these calls is given here.

Assays:
Erythrocyte [1] = experiment: Induction of membrane permeabilization assessed as hemolysis in RBC (unknown origin) at 100 microM by spectrophotometry based hemoglobin release assay; format: functional
[2] = Critical micelle concentration of the compound by KRUSS tensiometry; format: physicochemical
RAW264.7 = experiment: Cytotoxicity against mouse RAW264.7 cells assessed as reduction in cell viability after 24 hrs by MTT assay; format: functional, cell-based; conditions: RAW264.7, 24 h
Erythrocyte [3] = experiment: Induction of membrane permeabilization assessed as hemolysis in RBC (unknown origin) by spectrophotometry based hemoglobin release assay; format: functional, cell-based
HCT-116 [4] = experiment: Cytotoxicity against human p53-positive HCT116 cells assessed as reduction in cell viability after 24 hrs by MTT assay; format: functional, cell-based; conditions: HCT-116, 24 h
[5] = Cytotoxicity against human ARPE19 cells assessed as reduction in cell viability after 24 hrs by MTT assay; format: cell-based; conditions: ARPE-19, 24 h
HCT-116 [6] = experiment: Reduction in mitochondrial membrane potential in human p53-positive HCT116 cells by JC-1 dye based fluorescence assay; format: functional, cell-based
[7] = molecular target: Hemoglobin HbA (Homo sapiens) (UniProt P69905+P68871); experiment: Binding affinity to Hemoglobin (unknown origin) at 10 mM by circular dichroism spectroscopy
HCT-116 [8] = experiment: Induction of superoxide anion radicals generation in human p53-positive HCT116 cells by DHE staining based fluorescence assay; format: functional, cell-based
Steinernema feltiae = experiment: Nematicidal activity against Steinernema feltiae assessed as reduction in viability after 24 hrs; format: functional; conditions: read-out: LD50 (the source's name)
HCT-116 [9] = experiment: Drug uptake in human p53-positive HCT116 cells after 48 hrs by energy-dispersive X-ray spectroscopy; format: ADME, cell-based; conditions: hct-116, 48 h
Escherichia coli = experiment: Antibacterial activity against Escherichia coli M17 VKPM-B8208 by agar plate assay; format: functional, organism-based
HCT-116 [10] = experiment: Induction of superoxide anion radicals generation in human p53-positive HCT116 cells at 50 microM within 40 mins by DHE staining based fluorescence assay; format: functional, cell-based

Hemoglobin HbA (Homo sapiens), sequence (P68871 2-147 partner limits assumed): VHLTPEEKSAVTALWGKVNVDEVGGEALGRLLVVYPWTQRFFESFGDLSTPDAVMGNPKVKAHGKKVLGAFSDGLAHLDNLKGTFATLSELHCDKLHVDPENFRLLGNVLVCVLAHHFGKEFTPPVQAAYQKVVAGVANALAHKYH
Hemoglobin HbA (Homo sapiens), sequence (P69905 2-142 limits assumed): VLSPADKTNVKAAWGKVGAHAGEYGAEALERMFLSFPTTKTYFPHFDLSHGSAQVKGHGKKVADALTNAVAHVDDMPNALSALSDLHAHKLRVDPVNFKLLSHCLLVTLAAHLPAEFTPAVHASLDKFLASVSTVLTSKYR

O=S(=O)([O-])OCCCCCCCCC[Te]c1ccccc1.[Na+] gave an Activity (Erythrocyte [1]) of 20.44%, a CMC [2] of 4.8 mM and an IC50 (RAW264.7) of 4.67 µM. The Activity (Erythrocyte [3]) was “Dose-dependent effect”, the IC50 (HCT-116 [4]) was 4.99 µM and the IC50 [5] was 50 µM.
For O=S(=O)([O-])OCCCCCCCC[Se]c1ccccc1.[Na+], the Activity (Erythrocyte [1]) was 1.24%, the Activity (HCT-116 [6]) was “inactive” and the Activity [7] was “Active”. The CMC [2] was 2.6 mM, the IC50 (RAW264.7) was > 100 µM and the Activity (Erythrocyte [3]) was “Dose-dependent effect”. The Activity (HCT-116 [8]) was “inactive”, the LC50 (Steinernema feltiae) was 30 µM and the IC50 (HCT-116 [4]) was > 100 µM.
In the case of O=S(=O)([O-])OCCCCCCCCC[Se]c1ccccc1.[Na+], the Activity (Erythrocyte [1]) is reported as 2.73%, the CMC [2] is reported as 2.5 mM and the IC50 (RAW264.7) is reported as > 100 µM. For the same compound, the Activity (Erythrocyte [3]) was “Dose-dependent effect” and the IC50 (HCT-116 [4]) was > 100 µM.
O=S(=O)([O-])OCCCCCCCCCCCC[Te]c1ccccc1.[Na+] gave an Activity (Erythrocyte [1]) of 67.61%, a CMC [2] of 0.3 mM and an IC50 (RAW264.7) of 4.96 µM. The Activity (Erythrocyte [3]) was “Dose-dependent effect”, the IC50 (HCT-116 [4]) was 19.8 µM and the IC50 [5] was 50 µM.
In the case of O=S(=O)([O-])OCCCCCCCCCCC[Se]c1ccccc1.[Na+], the Activity (Erythrocyte [1]) is reported as 63.41%, the CMC [2] is reported as 1.1 mM and the IC50 (RAW264.7) is reported as > 100 µM. For the same compound, the Activity (Erythrocyte [3]) was “Dose-dependent effect” and the IC50 (HCT-116 [4]) was > 100 µM.
For CCCCCCCCCCCCOS(=O)(=O)[O-].[Na+] [SODIUM LAURYL SULFATE], the Activity (Erythrocyte [1]) was 9.51%, the CMC [2] was 0.9 mM and the IC50 (RAW264.7) was > 100 µM. The Activity (Erythrocyte [3]) was “Dose-dependent effect”, the LC50 (Steinernema feltiae) was > 400 µM and the IC50 (HCT-116 [4]) was > 100 µM.
In the case of O=S(=O)([O-])OCCCCCCCC[Te]c1ccccc1.[Na+], the Activity (Erythrocyte [1]) is reported as 3.09%, the Activity [7] is reported as “Active” and the Drug uptake (HCT-116 [9]) is reported as “Active”. It also gave a CMC [2] of 5 mM, an IC50 (Escherichia coli) of 550 µM and an IC50 (RAW264.7) of 3.95 µM. The Activity (Erythrocyte [3]) was “Dose-dependent effect”, the Activity (HCT-116 [10]) was “Active” and the LC50 (Steinernema feltiae) was 78 µM. For the same compound, the IC50 (HCT-116 [4]) was 5.99 µM and the IC50 [5] was 50 µM.
For O=S(=O)([O-])OCCCCCCCCCC[Se]c1ccccc1.[Na+], the Activity (Erythrocyte [1]) was 7.94%, the CMC [2] was 1.2 mM and the IC50 (RAW264.7) was > 100 µM. The Activity (Erythrocyte [3]) was “Dose-dependent effect” and the IC50 (HCT-116 [4]) was > 100 µM.
Compound O=S(=O)([O-])OCCCCCCCCCCC[Te]c1ccccc1.[Na+] has an Activity (Erythrocyte [1]) of 53.35%, a CMC [2] of 0.5 mM and an IC50 (RAW264.7) of 7.84 µM. The Activity (Erythrocyte [3]) was “Dose-dependent effect”, the IC50 (HCT-116 [4]) was 9.73 µM and the IC50 [5] was 50 µM.
With O=S(=O)([O-])OCCCCCCCCCCCC[Se]c1ccccc1.[Na+] the Activity (Erythrocyte [1]) was 66.8%, the CMC [2] was 0.7 mM and the IC50 (RAW264.7) was > 100 µM. For the same compound, the Activity (Erythrocyte [3]) was “Dose-dependent effect” and the IC50 (HCT-116 [4]) was > 100 µM.
For O=S(=O)([O-])OCCCCCCCCCC[Te]c1ccccc1.[Na+], the Activity (Erythrocyte [1]) was 45.35%, the CMC [2] was 0.9 mM and the IC50 (RAW264.7) was 5.32 µM. For the same compound, the Activity (Erythrocyte [3]) was “Dose-dependent effect”, the IC50 (HCT-116 [4]) was 7.47 µM and the IC50 [5] was 50 µM.
